The text below walks through data of patent publication US7217511B2, “Methods of increasing antibiotic production in Streptomyces by deletion of the scbA gene” (Plant Bioscience Limited, priority 2000, dated 2007).

Test [1] relates to S. coelicolor M751 (ΔscbA).
Test [2] concerns S. coelicolor M751 (ΔscbA). The method, then:
(§1) Bioassay using spore suspension of M145(top), M751(left bottom) and M752(right bottom) as indicator strain and spotted with 1 μg of SCB1. The plates were incubated at 30° C. for 20 h (left panel) or 40 h (right panel).
(§2) γ-butyrolactones were isolated from liquid or solid media by extracting the culture supernant or the agar with ethylacetate. The ethylacetate was evaporated and the sample was resuspended in 100% methanol for use in a bioassay or for HPLC analysis. Bioassay and HPLC analysis were conducted as described previously (Takano et al., 2000).
This is another data set of the same source.

Another test has as its system S. coelicolor M145. The method, then: as §1, §2
Test [3] deals with S. coelicolor M752 (ΔscbR). The method, then:
as §1, §2

ScbR, sequence (as listed by the source): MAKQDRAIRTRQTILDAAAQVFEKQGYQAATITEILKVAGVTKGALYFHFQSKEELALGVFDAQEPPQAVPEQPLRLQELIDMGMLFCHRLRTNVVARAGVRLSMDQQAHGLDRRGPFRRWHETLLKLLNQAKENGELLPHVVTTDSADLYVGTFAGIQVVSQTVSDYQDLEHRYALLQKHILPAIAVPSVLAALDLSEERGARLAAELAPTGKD

Turning to “2-isocaryloyl-3R-hydroxymethyl-γ-butyrolactone [A-factor]”, the “Formation of the DNA-protein complex (DNA-binding activity of ScbR)” value in the test on ScbR was “failed to inhibit”.

For `CC(C)CCCC[C@@H](O)[C@@H]1C(=O)OC[C@H]1CO` [SCB1], in test [1], the “Level of scbR transcription” value is “marked increase” and the scbA transcription entry is “not restored”. The “Effect of high concentrations of SCB1 on antibiotic production (lighter halo around the point of application)” value in test [2] is given as “inhibitory effect”. For the same compound, the “Response to exogenous SCB1 (antibiotic production in lawn)” value in the test on S. coelicolor M145 was “responded in the expected way”. Moreover, the “Response to exogenous SCB1 (antibiotic production in lawn)” value in test [3] was “did not respond”.
